Laboratory results from ChEMBL document CHEMBL1132432, “Urea-PETT compounds as a new class of HIV-1 reverse transcriptase inhibitors. 3. Synthesis and further structure-activity relationship studies of PETT analogues” (J Med Chem, 1999).

Experiments:
[1] = target: T1, Human immunodeficiency virus type 1 reverse transcriptase (Human immunodeficiency virus 1, UniProt Q72547); assay: HIV-1 reverse transcriptase inhibitory activity against Wild Type Reverse transcriptase using (poly)rC600*(oligo)dGT as template primer.
[2] = target: T1, Human immunodeficiency virus type 1 reverse transcriptase; assay: HIV-1 reverse transcriptase inhibitory activity against Asn103 mutant using (poly)rC600*(oligo)dGT as template primer.
[3] = target: T1, Human immunodeficiency virus type 1 reverse transcriptase; assay: HIV-1 reverse transcriptase inhibitory activity against Ile 100 mutant using (poly)rC600*(oligo)dGT as template primer.
[4] = target: T1, Human immunodeficiency virus type 1 reverse transcriptase; assay: HIV-1 reverse transcriptase inhibitory activity against Cys181 mutant using (poly)rC600*(oligo)dGT as template primer.
[5] = target: Human immunodeficiency virus type 1 reverse transcriptase (Human immunodeficiency virus 1) (UniProt Q72547); settings: MT4
Description: Inhibitory activity against HIV-1 Cys 181 mutant in MT-4 cells.

[6] = target: Human immunodeficiency virus type 1 reverse transcriptase (Human immunodeficiency virus 1) (UniProt Q72547); settings: MT4; remark: listed apart in the source
Description: Inhibitory activity against HIV-1 Ile 100 mutant in MT-4 cells.

[7] = target: Human immunodeficiency virus type 1 reverse transcriptase (Human immunodeficiency virus 1) (UniProt Q72547); settings: MT4; remark: listed apart in the source
Description: Inhibitory activity against HIV-1 Asn 103 mutant in MT-4 cells.

[8] = target: Human immunodeficiency virus type 1 reverse transcriptase (Human immunodeficiency virus 1) (UniProt Q72547); settings: MT4; remark: listed apart in the source
Description: Inhibition of wild type HIV-1 in MT-4 cell culture (human T cell line)

MT4 = assay: Inhibitory activity against HIV-1 Wild Type in MT-4 cell culture (human T-cell line with 50% human AB serum); type: functional; settings: read-out: ED50 (the source's name)

## CCC(=O)c1ccc(F)c(C2CC2NC(=O)Nc2ccc(Cl)cn2)c1O (stereo in doubt; 13) [listing 1 of 2 here]
[1]
  IC50: 9 nM
[2]
  IC50: 57 nM
[3]
  IC50: 76 nM
[4]
  IC50: 51 nM

## CCOc1ccc(F)c(C2CC2NC(=O)Nc2ccc(C#N)cn2)c1Cl (stereo not drawn)
[5]
  ED50: 270 nM
[1]
  IC50: 4.3 nM
[6]
  ED50: 234 nM
[2]
  IC50: 183 nM
[3]
  IC50: 200 nM
[7]
  ED50: > 5000 nM
[8]
  ED50: 8 nM
[4]
  IC50: 130 nM

## CC(=O)c1ccc(F)c(C2CC2NC(=O)Nc2ccc(C#N)cn2)c1O (stereo not drawn)
[5]
  ED50: 230 nM
[1]
  IC50: 5.3 nM
[6]
  ED50: 40 nM
[2]
  IC50: 98 nM
[3]
  IC50: 13 nM
[7]
  ED50: 104 nM
[8]
  ED50: 8 nM
[4]
  IC50: 16 nM

## CCOc1ccc(F)c(C2CC2NC(=O)Nc2ccc(Cl)cn2)c1F (stereo not drawn)
[5]
  ED50: 163 nM
[1]
  IC50: 1.6 nM
[6]
  ED50: 816 nM
[2]
  IC50: 473 nM
[3]
  IC50: 81 nM
[7]
  ED50: 544 nM
[8]
  ED50: 31 nM
[4]
  IC50: 14 nM

## COc1c(C(C)=O)ccc(F)c1CCNC(=O)Nc1ccc(Cl)cn1
[5]
  ED50: > 5000 nM
[1]
  IC50: 224 nM
[6]
  ED50: > 5000 nM
[2]
  IC50: > 2700 nM
[3]
  IC50: 26200 nM
[7]
  ED50: > 5000 nM
[8]
  ED50: 819 nM
[4]
  IC50: 12700 nM

## CCC(=O)c1ccc(F)c(C2CC2NC(=O)Nc2ccc(Br)cn2)c1O (stereo in doubt; 17) [listing 1 of 2 here]
[5]
  ED50: 69 nM
[6]
  ED50: 100 nM
[7]
  ED50: 80 nM
[8]
  ED50: 8 nM

## CCC(=O)c1ccc(F)c(C2CC2NC(=O)Nc2ccc(Cl)cn2)c1O (stereo in doubt; 13) [listing 2 of 2 here]
[5]
  ED50: 340 nM
[6]
  ED50: 220 nM
[7]
  ED50: 350 nM
[8]
  ED50: 27 nM

## CCOc1ccc(Cl)c(C2CC2NC(=O)Nc2ccc(C#N)cn2)c1F (stereo not drawn)
[5]
  ED50: 200 nM
[1]
  IC50: 2.7 nM
[6]
  ED50: 53 nM
[2]
  IC50: 192 nM
[3]
  IC50: 27 nM
[7]
  ED50: 400 nM
[8]
  ED50: 4 nM
[4]
  IC50: 20 nM

## CCC(=O)c1ccc(F)c(C2CC2NC(=O)Nc2ccc(Br)cn2)c1O (stereo in doubt; 18) [listing 1 of 2 here]
[5]
  ED50: 95 nM
[6]
  ED50: 53 nM
[7]
  ED50: 358 nM
[8]
  ED50: 12 nM

## CC(C)Nc1cccnc1N1CCN(C(=O)c2cc3cc(NS(C)(=O)=O)ccc3[nH]2)CC1 [DELAVIRDINE]
MT4; Homo sapiens, MT4
  EC50: 320 nM

## CCOc1ccc(Cl)c(C2CC2NC(=O)Nc2cc(Cl)cnn2)c1F (stereo not drawn)
[5]
  ED50: > 5000 nM
[1]
  IC50: 5.2 nM
[6]
  ED50: > 5000 nM
[2]
  IC50: > 2600 nM
[3]
  IC50: 1000 nM
[7]
  ED50: > 5000 nM
[8]
  ED50: 18 nM
[4]
  IC50: 1000 nM

## CCC(=O)c1ccc(F)c(C2CC2NC(=O)Nc2ccc(Cl)cn2)c1O (stereo in doubt; 20) [listing 1 of 2 here]
[1]
  IC50: 2.7 nM
[2]
  IC50: 77 nM
[3]
  IC50: 14 nM
MT4
  EC50: 80 nM
[4]
  IC50: 4 nM

## CCC(=O)c1ccc(F)c(C2CC2NC(=O)Nc2ccc(Cl)cn2)c1O (stereo in doubt; 20) [listing 2 of 2 here]
[5]
  ED50: 100 nM
[6]
  ED50: 75 nM
[7]
  ED50: 470 nM
[8]
  ED50: 13 nM

## CCC(=O)c1ccc(F)c(C2CC2NC(=O)Nc2ccc(Br)cn2)c1O (stereo in doubt; 18) [listing 2 of 2 here]
[1]
  IC50: 4.8 nM
[2]
  IC50: 41 nM
[3]
  IC50: 14 nM
MT4
  EC50: 56 nM
[4]
  IC50: 10 nM

## CCC(=O)c1ccc(F)c(C2CC2NC(=O)Nc2ccc(Cl)cn2)c1O (stereo in doubt; 19) [listing 1 of 2 here]
[1]
  IC50: 3.2 nM
[2]
  IC50: 82 nM
[3]
  IC50: 115 nM
MT4; Homo sapiens, MT4
  EC50: 51 nM
[4]
  IC50: 19 nM

## CCC(=O)c1ccc(F)c(C2CC2NC(=O)Nc2ccc(Cl)cn2)c1O (stereo in doubt; 19) [listing 2 of 2 here]
[5]
  ED50: 100 nM
[6]
  ED50: 100 nM
[7]
  ED50: 200 nM
[8]
  ED50: 9 nM

## Cc1ccnc2c1NC(=O)c1cccnc1N2C1CC1 [NEVIRAPINE]
MT4; Homo sapiens, MT4
  EC50: > 5000 nM

## CC(=O)c1ccc(F)c(C2CC2NC(=O)Nc2ccc(Br)cn2)c1O (stereo not drawn)
[5]
  ED50: 113 nM
[1]
  IC50: 3.5 nM
[6]
  ED50: 50 nM
[2]
  IC50: 70 nM
[3]
  IC50: 18 nM
[7]
  ED50: 561 nM
[8]
  ED50: 21 nM
[4]
  IC50: 8 nM

## CCOc1ccc(F)c(C2CC2NC(=O)Nc2cc(Cl)cnn2)c1Cl (stereo not drawn)
[5]
  ED50: 2300 nM
[1]
  IC50: 16 nM
[6]
  ED50: 4400 nM
[2]
  IC50: > 2600 nM
[3]
  IC50: 140 nM
[7]
  ED50: > 5000 nM
[8]
  ED50: 78 nM
[4]
  IC50: 260 nM

## CCC(=O)c1ccc(F)c(C2CC2NC(=O)Nc2ccc(Br)cn2)c1O (stereo in doubt; 17) [listing 2 of 2 here]
[1]
  IC50: 3.8 nM
[2]
  IC50: 83 nM
[3]
  IC50: 171 nM
MT4; Homo sapiens, MT4
  EC50: 58 nM
[4]
  IC50: 16 nM

## COc1ccc(C(C)=O)c(F)c1CCNC(=O)Nc1ccc(Cl)cn1
[5]
  ED50: > 20000 nM
[1]
  IC50: 109 nM
[6]
  ED50: > 20000 nM
[2]
  IC50: > 2700 nM
[3]
  IC50: 11200 nM
[7]
  ED50: 3280 nM
[8]
  ED50: 273 nM
[4]
  IC50: 10100 nM

## CN(C)c1ccc(F)c(CCNC(=O)Nc2ccc(Br)cn2)c1F
[5]
  ED50: > 20000 nM
[6]
  ED50: > 20000 nM
[2]
  IC50: > 2500 nM
[3]
  IC50: > 2500 nM
[7]
  ED50: > 20000 nM
[8]
  ED50: 500 nM
[4]
  IC50: 1500 nM

## O=C1Nc2ccc(Cl)cc2[C@@](C#CC2CC2)(C(F)(F)F)O1 [EFAVIRENZ]
MT4; Homo sapiens, MT4
  EC50: 50 nM

## COc1ccc(OC)c(CCNC(=O)Nc2ccc(Cl)cn2)c1F
[5]
  ED50: > 5000 nM
[6]
  ED50: 3800 nM
[2]
  IC50: 224 nM
[3]
  IC50: 140 nM
[7]
  ED50: 1130 nM
[8]
  ED50: 28 nM
[4]
  IC50: 140 nM

## CCC(=O)c1ccc(F)c(C2CC2NC(=O)Nc2ccc(C#N)cn2)c1O (stereo not drawn)
[5]
  ED50: 46 nM
[1]
  IC50: 6.8 nM
[6]
  ED50: 69 nM
[2]
  IC50: 97 nM
[3]
  IC50: 32 nM
[7]
  ED50: 137 nM
[8]
  ED50: 3 nM
[4]
  IC50: 16 nM

## COc1ccc2c(c1)N(C(=O)OC(C)C)C(CSC)C(S)=N2 (stereo not drawn)
[5]
  ED50: 73 nM
[1]
  IC50: 8 nM
[6]
  ED50: 72 nM
[2]
  IC50: 56 nM
[3]
  IC50: 9 nM
[7]
  ED50: 500 nM
MT4; Homo sapiens, MT4
  EC50: 320 nM
[8]
  ED50: 9 nM
[4]
  IC50: 9 nM

## O=C(Nc1ccc(Cl)cn1)NC1CC1c1c(F)ccc(O)c1Cl (stereo not drawn)
[5]
  ED50: > 5000 nM
[1]
  IC50: 135 nM
[6]
  ED50: > 5000 nM
[2]
  IC50: > 2700 nM
[3]
  IC50: 4100 nM
[7]
  ED50: > 5000 nM
[8]
  ED50: 110 nM
[4]
  IC50: 4300 nM

## CCOc1ccc(Cl)c(C2CC2NC(=O)Nc2ccc(Cl)cn2)c1F (stereo not drawn)
[5]
  ED50: 104 nM
[1]
  IC50: 1.3 nM
[6]
  ED50: 139 nM
[2]
  IC50: 237 nM
[3]
  IC50: 52 nM
[7]
  ED50: 780 nM
[8]
  ED50: 9 nM
[4]
  IC50: 21 nM

## CCOc1ccc(F)c(CCNC(=O)Nc2ccc(Br)cn2)c1Cl
[5]
  ED50: > 5000 nM
[6]
  ED50: > 10000 nM
[2]
  IC50: > 2400 nM
[3]
  IC50: 1680 nM
[7]
  ED50: > 5000 nM
[8]
  ED50: 70 nM
[4]
  IC50: 240 nM
